Experimental data taken from patent US12077503B2, “Substituted cyclic amides and their use as herbicides” (FMC CORPORATION, priority 2015, dated 2024).
Where two headings read alike, the source gives them in different places.

Assays:
Format in all cases: in vivo
[1] = test system: ducksalad (Heteranthera limosa); experiment: Test B flooded paddy test; details: Heteranthera limosa, Flood, 250 g ai/ha; scale of 0 to 100 where 0 is no effect and 100 is complete control; read-out: Ducksalad plant response rating
Outline: (§1)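 Greenhouse paddy pots with 2-leaf stage plants received compound by direct addition to floodwater 3 cm deep, kept at that level. Scored visually at 13–15 d versus controls (0 no effect; 100 complete control).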

[2] = test system: sedge, umbrella (small-flower umbrella sedge, Cyperus difformis); experiment: Test B flooded paddy test; details: Cyperus difformis, Flood, 250 g ai/ha; scale of 0 to 100 where 0 is no effect and 100 is complete control; read-out: Sedge, Umbrella plant response rating
Outline: as §1

[3] = test system: barnyardgrass (Echinochloa crus-galli); experiment: Test B flooded paddy test; details: Echinochloa crus-galli, Flood, 250 g ai/ha; scale of 0 to 100 where 0 is no effect and 100 is complete control; read-out: Barnyardgrass plant response rating
Outline: as §1

rice (Oryra sativa) = experiment: Test B flooded paddy test; details: Oryza sativa, Flood, 250 g ai/ha; scale of 0 to 100 where 0 is no effect and 100 is complete control; read-out: Rice plant response rating
Outline: as §1

[4] = test system: pigweed (Amaranthus retroflexus); experiment: Test A preemergence; details: Amaranthus retroflexus, pre-emergence, 240 h, read-out: Plant response rating, Pigweed; for pest or weed control at 125 g/ha: 125 g ai/ha, preemergence, visual rating after approx. 10 d, 0 to 100 scale where 0 is no effect and 100 is complete control; for pest or weed control at 31 g/ha: Preemergence, 31 g ai/ha, 0 to 100 scale (0 no effect, 100 complete control)
Kochia (Kochia scoparia) [5] = experiment: Test A preemergence; details: Bassia scoparia, pre-emergence, 240 h, read-out: Plant response rating, Kochia; for pest or weed control at 125 g/ha: 125 g ai/ha, preemergence, visual rating after approx. 10 d, 0 to 100 scale where 0 is no effect and 100 is complete control; for pest or weed control at 31 g/ha: Preemergence, 31 g ai/ha, 0 to 100 scale (0 no effect, 100 complete control)
Outline: (§2)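 Preemergence directed soil spray on seeded pots, or postemergence application to plants 2–10 cm, one- to two-leaf. Solvent mixture non-phytotoxic, with surfactant. Scored ~10 d later, visually, 0–100 vs untreated.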

[6] = test system: ragweed (common ragweed, Ambrosia elatior); experiment: Test A preemergence; details: Ambrosia artemisiifolia, pre-emergence, 240 h, read-out: Plant response rating, Ragweed; for pest or weed control at 125 g/ha: 125 g ai/ha, preemergence, visual rating after approx. 10 d, 0 to 100 scale where 0 is no effect and 100 is complete control; for pest or weed control at 31 g/ha: Preemergence, 31 g ai/ha, 0 to 100 scale (0 no effect, 100 complete control)
Outline: as §2

[7] = test system: ryegrass, Italian (Italian ryegrass, Lolium multiflorum); experiment: Test A preemergence; details: Lolium multiflorum, pre-emergence, 240 h, read-out: Plant response rating, Ryegrass, Italian; for pest or weed control at 125 g/ha: 125 g ai/ha, preemergence, visual rating after approx. 10 d, 0 to 100 scale where 0 is no effect and 100 is complete control; for pest or weed control at 31 g/ha: Preemergence, 31 g ai/ha, 0 to 100 scale (0 no effect, 100 complete control)
Outline: as §2

[8] = test system: giant foxtail (Setaria faberii); experiment: Test A preemergence; details: Setaria faberi, pre-emergence, 240 h, read-out: Plant response rating, Foxtail, Giant; for pest or weed control at 125 g/ha: 125 g ai/ha, preemergence, visual rating after approx. 10 d, 0 to 100 scale where 0 is no effect and 100 is complete control; for pest or weed control at 31 g/ha: Preemergence, 31 g ai/ha, 0 to 100 scale (0 no effect, 100 complete control)
Outline: as §2

[9] = test system: barnyardgrass (Echinochloa crus-galli); experiment: Test A preemergence; details: Echinochloa crus-galli, pre-emergence, 240 h, read-out: Plant response rating, Barnyardgrass; for pest or weed control at 125 g/ha: 125 g ai/ha, preemergence, visual rating after approx. 10 d, 0 to 100 scale where 0 is no effect and 100 is complete control; for pest or weed control at 31 g/ha: Preemergence, 31 g ai/ha, 0 to 100 scale (0 no effect, 100 complete control)
Outline: as §2

[10] = test system: blackgrass (Alopecurus myosuroides); experiment: Test A postemergence; details: Alopecurus myosuroides, post-emergence, 240 h; for pest or weed control at 125 g/ha: 125 g ai/ha, postemergence; for pest or weed control at 31 g/ha: Postemergence, 31 g ai/ha, visual injury after approx. 10 d, 0 to 100 scale, 0 no effect, 100 complete control
Outline: as §2

Kochia (Kochia scoparia) [11] = experiment: Test A postemergence; details: Bassia scoparia, post-emergence, 240 h; for pest or weed control at 125 g/ha: 125 g ai/ha, postemergence; for pest or weed control at 31 g/ha: Postemergence, 31 g ai/ha, visual injury after approx. 10 d, 0 to 100 scale, 0 no effect, 100 complete control
Outline: as §2

[12] = test system: ryegrass, Italian (Italian ryegrass, Lolium multiflorum); experiment: Test A postemergence; details: Lolium multiflorum, post-emergence, 240 h; for pest or weed control at 125 g/ha: 125 g ai/ha, postemergence; for pest or weed control at 31 g/ha: Postemergence, 31 g ai/ha, visual injury after approx. 10 d, 0 to 100 scale, 0 no effect, 100 complete control
Outline: as §2

[13] = test system: giant foxtail (Setaria faberii); experiment: Test A postemergence; details: Setaria faberi, post-emergence, 240 h; for pest or weed control at 125 g/ha: 125 g ai/ha, postemergence; for pest or weed control at 31 g/ha: Postemergence, 31 g ai/ha, visual injury after approx. 10 d, 0 to 100 scale, 0 no effect, 100 complete control
Outline: as §2

[14] = read-out: Plant response rating, Blackgrass
[15] = read-out: Plant response rating, Kochia
[16] = read-out: Plant response rating, Ryegrass, Italian
[17] = read-out: Plant response rating, Foxtail, Giant
[18] = visual injury rating after approximately 10 d, read-out: Blackgrass plant response rating (0 to 100 scale, 0 no effect, 100 complete control)
[19] = visual injury rating after approximately 10 d, read-out: Kochia plant response rating (0 to 100 scale, 0 no effect, 100 complete control)
[20] = visual injury rating after approximately 10 d, read-out: Ryegrass, Italian plant response rating (0 to 100 scale, 0 no effect, 100 complete control)
[21] = visual injury rating after approximately 10 d, read-out: Foxtail, Giant plant response rating (0 to 100 scale, 0 no effect, 100 complete control)

Compound	pest or weed control at 250 g/ha [1]	pest or weed control at 250 g/ha [2]	pest or weed control at 250 g/ha [3]	pest or weed control at 250 g/ha (rice (Oryra sativa))	pest or weed control at 125 g/ha [4]	pest or weed control at 31 g/ha [4]	pest or weed control at 125 g/ha (Kochia (Kochia scoparia) [5])	pest or weed control at 31 g/ha (Kochia (Kochia scoparia) [5])	pest or weed control at 125 g/ha [6]	pest or weed control at 31 g/ha [6]	pest or weed control at 125 g/ha [7]	pest or weed control at 31 g/ha [7]	pest or weed control at 125 g/ha [8]	pest or weed control at 31 g/ha [8]	pest or weed control at 125 g/ha [9]	pest or weed control at 31 g/ha [9]	pest or weed control at 31 g/ha [10, 14]	pest or weed control at 31 g/ha (Kochia (Kochia scoparia) [11]; [15])	pest or weed control at 31 g/ha [12, 16]	pest or weed control at 31 g/ha [13, 17]	other results
Cc1cc(F)cc([C@H]2CN(C)C(=O)[C@@H]2C(=O)Nc2cccc(F)c2C#N)c1 [Compound 800]	95%	0%	95%	30%	20%	0%	0%	0%	0%	0%	40%	0%	90%	80%	90%	80%	0%	0%	0%	80%	pest or weed control at 125 g/ha ([10]; visual injury after approximately 10 d, 0 to 100 scale (0 no effect, 100 complete control), read-out: Plant response rating, Blackgrass): 20%; pest or weed control at 125 g/ha (Kochia (Kochia scoparia) [11]; visual injury after approximately 10 d, 0 to 100 scale (0 no effect, 100 complete control), read-out: Plant response rating, Kochia): 0%; pest or weed control at 125 g/ha ([12]; visual injury after approximately 10 d, 0 to 100 scale (0 no effect, 100 complete control), read-out: Plant response rating, Ryegrass, Italian): 20%; pest or weed control at 125 g/ha ([13]; visual injury after approximately 10 d, 0 to 100 scale (0 no effect, 100 complete control), read-out: Plant response rating, Foxtail, Giant): 80%
Cc1cc(F)cc([C@H]2CN(C)C(=O)[C@@H]2C(=O)Nc2cccc(F)c2C)c1 [Compound 802]	100%	0%	90%	20%	50%	40%	50%	0%	60%	0%	40%	0%	90%	90%	90%	80%	20%	20%	0%	70%	pest or weed control at 125 g/ha [10, 18]: 60%; pest or weed control at 125 g/ha (Kochia (Kochia scoparia) [11]; [19]): 40%; pest or weed control at 125 g/ha [12, 20]: 40%; pest or weed control at 125 g/ha [13, 21]: 90%
CN1C[C@H](c2ccc(C(F)(F)F)c(Br)c2)[C@@H](C(=O)Nc2cccc(F)c2F)C1=O [Compound 804]	80%	0%	30%	60%	60%	0%	20%	0%	0%	0%	50%	40%	80%	70%	90%	70%	0%	40%	0%	60%	pest or weed control at 125 g/ha [10, 18]: 20%; pest or weed control at 125 g/ha (Kochia (Kochia scoparia) [11]; [19]): 70%; pest or weed control at 125 g/ha [12, 20]: 0%; pest or weed control at 125 g/ha [13, 21]: 80%
CN1CC[C@H](c2cccc(OC(F)(F)F)c2)[C@@H](C(=O)Nc2ccccc2C(F)(F)F)C1=O [Compound 806]	75%	0%	0%	0%	0%	0%	0%	0%	0%	0%	0%	0%	0%	0%	0%	0%	0%	0%	0%	0%	pest or weed control at 125 g/ha [10, 18]: 0%; pest or weed control at 125 g/ha (Kochia (Kochia scoparia) [11]; [19]): 0%; pest or weed control at 125 g/ha [12, 20]: 0%; pest or weed control at 125 g/ha [13, 21]: 0%
CN1CC[C@H](c2cccc(OC(F)(F)F)c2)[C@@H](C(=O)Nc2ccc(F)c(F)c2F)C1=O [Compound 808]	100%	0%	70%	15%	0%	0%	0%	0%	0%	0%	30%	0%	90%	70%	100%	100%	0%	0%	0%	70%	pest or weed control at 125 g/ha [10, 18]: 0%; pest or weed control at 125 g/ha (Kochia (Kochia scoparia) [11]; [19]): 0%; pest or weed control at 125 g/ha [12, 20]: 0%; pest or weed control at 125 g/ha [13, 21]: 80%
